Measurements published in US7704995B2 (Exelixis, Inc., priority 2003, dated 2010).
Where two headings read alike, the source gives them in different places.

Biological target: T1, Chk1 (Homo sapiens, UniProt O14757)
T1 construct: purchased Upstate Biotechnology
T1 sequence (O14757 1-476): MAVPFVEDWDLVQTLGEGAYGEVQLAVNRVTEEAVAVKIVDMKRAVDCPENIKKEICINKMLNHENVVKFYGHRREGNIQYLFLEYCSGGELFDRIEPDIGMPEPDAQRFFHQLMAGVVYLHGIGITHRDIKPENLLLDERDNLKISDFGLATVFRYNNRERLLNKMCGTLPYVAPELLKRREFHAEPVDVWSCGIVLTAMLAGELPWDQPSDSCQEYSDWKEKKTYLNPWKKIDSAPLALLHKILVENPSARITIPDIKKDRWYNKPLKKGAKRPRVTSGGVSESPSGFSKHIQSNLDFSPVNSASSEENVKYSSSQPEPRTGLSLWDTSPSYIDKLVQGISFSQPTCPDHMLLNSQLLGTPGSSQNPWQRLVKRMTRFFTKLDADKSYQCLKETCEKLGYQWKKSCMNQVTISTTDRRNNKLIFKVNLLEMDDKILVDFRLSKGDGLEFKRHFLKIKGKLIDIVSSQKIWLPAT
Assay: Chk1 kinase assay: incorporation of γ-33P ATP into immobilized myelin basic protein
Type: biochemical
Conditions: read-out: Chk1 IC50
Summary of the method: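 Plates coated with MBP, then kinase reactions in Hepes pH 7.6 buffer with 10 mM MgCl2 and 1% DMSO were started by adding unlabeled plus γ-33P ATP (10 μM for Chk1 at 10 nM enzyme; 30 μM for Chk2 at 20 nM enzyme). After 1 h at room temperature, plates were washed and counted.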

[1] = Table 11, Chk1 only, class symbols A-D

Row | IC50 [nM] | IC50 (Table 11, Chk1 only) [nM] | SMILES | other results
1 |  | ≥ 10000 | Cn1nc(-c2nc(-c3cccc(C(=O)NCc4ccccc4)c3)cnc2N)nc1-c1ccccc1 [Example 672, 3-[5-amino-6-(1-methyl-5-phenyl-1H-1,2,4-triazol-3-yl)pyrazin-2-yl]-N-(phenylmethyl)benzamide] | 
2 |  | 1000 to 10000 | CC(C)(C)OC(=O)N1CCC[C@@H](NC(=O)c2nc(-c3cccc(C(=O)N[C@H]4CCc5ccccc54)c3)cnc2N)C1 [Example 794, 1,1-dimethylethyl (3R)-3-({[3-amino-6-(3-{[(1S)-2,3-dihydro-1H-inden-1-ylamino]carbonyl}phenyl)pyrazin-2-yl]carbonyl}amino)piperidine-1-carboxylate] | 
3 |  | 50 to 1000 | Nc1ncc(-c2cccc(C(=O)N[C@H]3c4ccccc4C[C@H]3O)c2)nc1C(=O)N[C@H]1CCNC1 [Example 708, 3-amino-6-[3-({[(1S,2R)-2-hydroxy-2,3-dihydro-1H-inden-1-yl]amino}carbonyl)phenyl]-N-[(3S)-pyrrolidin-3-yl]pyrazine-2-carboxamide] | 
4 |  | ≥ 10000 | CC(C)(C)OC(=O)N1CC[C@H](NC(=O)c2nc(-c3cccc(C(=O)NC(C)(C)c4ccccc4)c3)cnc2N)C1 [Example 800, 1,1-dimethylethyl (3S)-3-({[3-amino-6-(3-{[(1-methyl-1-phenylethyl)amino]carbonyl}phenyl)pyrazin-2-yl]carbonyl}amino)pyrrolidine-1-carboxylate] | 

Continued, molecule first:

Row | SMILES | IC50 [nM] | IC50 (Table 11, Chk1 only) [nM] | other results
5 | CNC(=O)c1nc(-c2cccc(C(=O)NCc3cc(F)ccc3F)c2)cnc1N [Example 337, 3-amino-6-[3-({[(2,5-difluorophenyl)methyl]amino}carbonyl)phenyl]-N-methylpyrazine-2-carboxamide] | 50 to 1000 |  | 
6 | CNC(=O)c1nc(-c2cccc(C(=O)NCC3CCCN3C(=O)OC(C)(C)C)c2)cnc1N (stereo not shown) [Example 365, 1,1-dimethylethyl 2-({[(3-{5-amino-6-[(methylamino)carbonyl]pyrazin-2-yl}phenyl)carbonyl]amino}methyl)pyrrolidine-1-carboxylate] | 1000 to 10000 |  | 
7 | Nc1ncc(-c2cccc(CN[C@H]3CCc4ccccc43)c2)nc1C(=O)NCCCn1ccnc1 [Example 586, 3-amino-6-(3-{[(1S)-2,3-dihydro-1H-inden-1-ylamino]methyl}phenyl)-N-[3-(1H-imidazol-1-yl)propyl]pyrazine-2-carboxamide] |  | 50 to 1000 | 
8 | Nc1ncc(-c2cccc(OCCN3CCN(c4ccccc4)CC3)c2)nc1C(=O)N[C@H]1CCCNC1 [Example 894, 3-amino-6-(3-{[2-(4-phenylpiperazin-1-yl)ethyl]oxy}phenyl)-N-[(3S)-piperidin-3-yl]pyrazine-2-carboxamide] |  |  | IC50 [1]: < 50 nM
9 | CNC(=O)c1nc(-c2cccc(C(=O)NCc3cccc(-c4ccccc4)c3)c2)cnc1N [Example 224, 3-amino-6-(3-{[(biphenyl-3-ylmethyl)amino]carbonyl}phenyl)-N-methylpyrazine-2-carboxamide] | 50 to 1000 |  | 
10 | CNC(=O)c1nc(-c2cccc(C(=O)NCC3CCCN3Cc3ccccc3)c2)cnc1N (stereo not shown) [Example 385, 3-amino-N-methyl-6-{3-[({[1-(phenylmethyl)pyrrolidin-2-yl]methyl}amino)carbonyl]phenyl}pyrazine-2-carboxamide] | 50 to 1000 |  | 
11 | CNC(=O)c1nc(-c2cccc(CN[C@@H]3CCc4ccccc43)c2)cnc1N [Example 417, 3-amino-6-(3-{[(1R)-2,3-dihydro-1H-inden-1-ylamino]methyl}phenyl)-N-methylpyrazine-2-carboxamide] | 50 to 1000 |  | 
12 | Cc1cc(CNC(=O)c2cccc(-c3cnc(N)c(C(=O)N[C@H]4CCCNC4)n3)c2)ccc1F [Example 1029, 3-amino-6-[3-({[(4-fluoro-3-methylphenyl)methyl]amino}carbonyl)phenyl]-N-[(3S)-piperidin-3-yl]pyrazine-2-carboxamide] |  |  | IC50 [1]: < 50 nM
13 | Nc1ncc(-c2cccc(CN[C@H]3CCc4ccccc43)c2)nc1C(=O)NCCCCO [Example 539, 3-amino-6-(3-{[(1S)-2,3-dihydro-1H-inden-1-ylamino]methyl}phenyl)-N-(4-hydroxybutyl)pyrazine-2-carboxamide] |  | 50 to 1000 | 
14 | CNC(=O)c1nc(-c2cccc(C(=O)NCc3cccc(Cl)c3F)c2)cnc1N [Example 300, 3-amino-6-[3-({[(3-chloro-2-fluorophenyl)methyl]amino}carbonyl)phenyl]-N-methylpyrazine-2-carboxamide] | 50 to 1000 |  | 
15 | C/C(=N\N1CCN(C)CC1)c1nc(-c2cccc(C(=O)NCc3ccccc3)c2)cnc1N [Example 642, 3-{5-amino-6-[(1E)-N-(4-methylpiperazin-1-yl)ethanimidoyl]pyrazin-2-yl}-N-(phenylmethyl)benzamide] |  | 50 to 1000 | 
16 | CNC(=O)c1nc(-c2cccc(C(=O)NCC3CCCCC3)c2)cnc1N [Example 126, 3-amino-6-(3-{[(cyclohexylmethyl)amino]carbonyl}phenyl)-N-methylpyrazine-2-carboxamide] | 50 to 1000 |  | 
17 | CC(=O)NCCNC(=O)c1nc(-c2cccc(C(=O)NCc3ccccc3)c2)cnc1N [Example 661, N-[2-(acetylamino)ethyl]-3-amino-6-(3-{[(phenylmethyl)amino]carbonyl}phenyl)pyrazine-2-carboxamide] |  | 1000 to 10000 | 
18 | C/C(=N\N1CCOCC1)c1nc(-c2cccc(C(=O)NCc3ccccc3)c2)cnc1N [Example 626, 3-{5-amino-6-[(1E)-N-morpholin-4-ylethanimidoyl]pyrazin-2-yl}-N-(phenylmethyl)benzamide] |  | 1000 to 10000 | 
19 | Nc1ncc(-c2cccc(C(=O)NCc3ccccc3)c2)nc1C(=O)N[C@H](Cc1ccc(O)cc1)C(=O)O [Example 611, N-{[3-amino-6-(3-{[(phenylmethyl)amino]carbonyl}phenyl)pyrazin-2-yl]carbonyl}-D-tyrosine] |  | ≥ 10000 | 
20 | Nc1ncc(-c2cccc(C(=O)NCc3ccccc3)c2)nc1C(=O)NC1CCNC1 (stereo not shown) [Example 568, 3-amino-6-(3-{[(phenylmethyl)amino]carbonyl}phenyl)-N-pyrrolidin-3-ylpyrazine-2-carboxamide] |  | 50 to 1000 | 
21 | CNC(=O)c1nc(-c2cccc(CN[C@H]3CCc4ccccc43)c2)cnc1N [Example 418, 3-amino-6-(3-{[(1S)-2,3-dihydro-1H-inden-1-ylamino]methyl}phenyl)-N-methylpyrazine-2-carboxamide] | < 50 |  | 
22 | CNC(=O)c1nc(-c2cccc(-c3noc(-c4ccccc4)n3)c2)cnc1N [Example 136, 3-amino-N-methyl-6-[3-(5-phenyl-1,2,4-oxadiazol-3-yl)phenyl]pyrazine-2-carboxamide] | 1000 to 10000 |  | 
23 | Cc1noc(C)c1NC(=O)NCCNC(=O)c1nc(-c2cccc(C(=O)NCc3ccccc3)c2)cnc1N [Example 666, 3-amino-N-[2-({[(3,5-dimethylisoxazol-4-yl)amino]carbonyl}amino)ethyl]-6-(3-{[(phenylmethyl)amino]carbonyl}phenyl)pyrazine-2-carboxamide] |  | 1000 to 10000 | 
24 | Nc1ncc(-c2cccc(C(=O)NCc3ccc(Cl)c(Cl)c3)c2)nc1-c1nc([C@H]2CCCNC2)n[nH]1 [Example 830, 3-(5-amino-6-{3-[(3S)-piperidin-3-yl]-1H-1,2,4-triazol-5-yl}pyrazin-2-yl)-N-[(3,4-dichlorophenyl)methyl]benzamide] |  |  | IC50 [1]: < 50 nM
25 | CNC(=O)c1nc(-c2cccc(CNC(=O)C3CCN(c4ncc(C(F)(F)F)cn4)CC3)c2)cnc1N [Example 354, 3-amino-N-methyl-6-(3-{[({1-[5-(trifluoromethyl)pyrimidin-2-yl]piperidin-4-yl}carbonyl)amino]methyl}phenyl)pyrazine-2-carboxamide] | 50 to 1000 |  | 
26 | CNC(=O)c1nc(-c2cccc(CNC(=O)Cc3ccc(Cl)cc3)c2)cnc1N [Example 331, 3-amino-6-[3-({[(4-chlorophenyl)acetyl]amino}methyl)phenyl]-N-methylpyrazine-2-carboxamide] | 50 to 1000 |  | 
27 | Nc1ncc(-c2cccc(CNC(=O)c3ccccc3Cl)c2)nc1-c1nc([C@H]2CCCNC2)n[nH]1 [Example 940, N-{[3-(5-amino-6-{3-[(3S)-piperidin-3-yl]-1H-1,2,4-triazol-5-yl}pyrazin-2-yl)phenyl]methyl}-2-chlorobenzamide] |  |  | IC50 [1]: < 50 nM
28 | CNC(=O)c1nc(-c2cc(C)cc(C)c2)cnc1N [Example 78, 3-amino-6-(3,5-dimethylphenyl)-N-methylpyrazine-2-carboxamide] | 1000 to 10000 |  | 
29 | Nc1ncc(-c2cccc(C(=O)NCCc3ccccc3)c2)nc1C(=O)N[C@H]1CCCNC1 [Example 878, 3-amino-6-(3-{[(2-phenylethyl)amino]carbonyl}phenyl)-N-[(3S)-piperidin-3-yl]pyrazine-2-carboxamide] |  |  | IC50 [1]: < 50 nM
30 | CN(C)CCNC(=O)c1nc(-c2cccc(CN[C@H]3CCc4ccccc43)c2)cnc1N [Example 556, 3-amino-6-(3-{[(1S)-2,3-dihydro-1H-inden-1-ylamino]methyl}phenyl)-N-[2-(dimethylamino)ethyl]pyrazine-2-carboxamide] |  | 50 to 1000 | 
31 | Nc1ncc(-c2cccc(C(=O)NCc3ccc(F)cc3)c2)nc1-c1nnc([C@H]2CCCNC2)[nH]1 [Example 836, 3-(5-amino-6-{5-[(3S)-piperidin-3-yl]-4H-1,2,4-triazol-3-yl}pyrazin-2-yl)-N-[(4-fluorophenyl)methyl]benzamide] |  |  | IC50 [1]: < 50 nM
